Experiments:
[1] = healthy 70 kg-adult; cited from earlier work
[2] = Pilot studies of local anaesthesia by pin-prick and thermal sensitivity testing; assay type: in vivo, human; settings: applied directly to the skin without NO-generating gel; within 20 minutes
Description: The anaesthetic used in these initial studies was xylocalne as it was readily available in a pharmaceutical form for mixing.

Row | SMILES | generally accepted safe dosage for topical anaesthesia [1] | level of anaesthesia [2]
1 | CCCCNc1ccc(C(=O)OCCN(C)C)cc1 [tetracaine] | 50 mg | –
2 | COC(=O)[C@H]1[C@@H](OC(=O)c2ccccc2)C[C@@H]2CC[C@H]1N2C [cocaine] | 200 mg | –
3 | CCN(CC)CC(=O)Nc1c(C)cccc1C [xylocalne] | – | failed to produce any discernible level of anaesthesia
4 | CCN(CC)CC(=O)Nc1c(C)cccc1C [lidocaine] | 750 mg | –
